Test results as given in article PMC10951960, “CGP7930 - An allosteric modulator of GABABRs, GABAARs and inwardly-rectifying potassium channels” (Neuropharmacology, 2023).

Assays:
[1] = biological target: T1, GABABR (Rattus norvegicus, UniProt O88871+Q9Z0U4); assay: GABABR antagonism by CGP55845 in hippocampal whole-cell recording; type: cell-based; conditions: n = 6, data not shown; read-out: IC50 of GABABR antagonist under our recording conditions
T1 construct: endogenous in cells; host or cells: cultured rat (E18 Sprague-Dawley) hippocampal neurons, 12-17 DIV
T1 sequence (Q9Z0U4 17-960 limits assumed): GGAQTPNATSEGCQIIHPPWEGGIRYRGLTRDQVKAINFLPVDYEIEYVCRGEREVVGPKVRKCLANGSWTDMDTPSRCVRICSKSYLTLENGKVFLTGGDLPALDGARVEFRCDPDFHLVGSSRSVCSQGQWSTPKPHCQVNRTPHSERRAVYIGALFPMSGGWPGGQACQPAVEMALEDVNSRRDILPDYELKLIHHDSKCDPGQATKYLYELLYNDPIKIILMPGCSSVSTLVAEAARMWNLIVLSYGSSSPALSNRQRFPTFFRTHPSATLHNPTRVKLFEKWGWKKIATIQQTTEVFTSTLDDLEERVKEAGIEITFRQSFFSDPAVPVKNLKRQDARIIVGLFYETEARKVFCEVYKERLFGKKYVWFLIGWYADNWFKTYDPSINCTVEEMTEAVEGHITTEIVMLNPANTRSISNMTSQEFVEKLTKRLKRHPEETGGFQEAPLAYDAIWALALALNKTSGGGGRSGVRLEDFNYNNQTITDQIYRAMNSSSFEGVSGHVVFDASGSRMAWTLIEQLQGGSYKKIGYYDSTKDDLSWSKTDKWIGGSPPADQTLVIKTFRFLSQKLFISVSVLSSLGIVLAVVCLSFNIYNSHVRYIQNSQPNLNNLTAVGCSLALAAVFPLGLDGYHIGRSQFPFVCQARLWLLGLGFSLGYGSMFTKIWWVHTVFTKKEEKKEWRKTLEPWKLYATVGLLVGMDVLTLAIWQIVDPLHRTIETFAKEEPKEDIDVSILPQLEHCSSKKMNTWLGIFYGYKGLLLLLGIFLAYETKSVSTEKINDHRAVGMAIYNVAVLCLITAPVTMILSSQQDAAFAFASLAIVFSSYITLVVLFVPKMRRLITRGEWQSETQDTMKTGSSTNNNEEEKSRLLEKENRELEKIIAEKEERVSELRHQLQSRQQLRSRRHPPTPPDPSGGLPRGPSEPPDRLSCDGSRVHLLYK
T1 sequence (O88871 41-940): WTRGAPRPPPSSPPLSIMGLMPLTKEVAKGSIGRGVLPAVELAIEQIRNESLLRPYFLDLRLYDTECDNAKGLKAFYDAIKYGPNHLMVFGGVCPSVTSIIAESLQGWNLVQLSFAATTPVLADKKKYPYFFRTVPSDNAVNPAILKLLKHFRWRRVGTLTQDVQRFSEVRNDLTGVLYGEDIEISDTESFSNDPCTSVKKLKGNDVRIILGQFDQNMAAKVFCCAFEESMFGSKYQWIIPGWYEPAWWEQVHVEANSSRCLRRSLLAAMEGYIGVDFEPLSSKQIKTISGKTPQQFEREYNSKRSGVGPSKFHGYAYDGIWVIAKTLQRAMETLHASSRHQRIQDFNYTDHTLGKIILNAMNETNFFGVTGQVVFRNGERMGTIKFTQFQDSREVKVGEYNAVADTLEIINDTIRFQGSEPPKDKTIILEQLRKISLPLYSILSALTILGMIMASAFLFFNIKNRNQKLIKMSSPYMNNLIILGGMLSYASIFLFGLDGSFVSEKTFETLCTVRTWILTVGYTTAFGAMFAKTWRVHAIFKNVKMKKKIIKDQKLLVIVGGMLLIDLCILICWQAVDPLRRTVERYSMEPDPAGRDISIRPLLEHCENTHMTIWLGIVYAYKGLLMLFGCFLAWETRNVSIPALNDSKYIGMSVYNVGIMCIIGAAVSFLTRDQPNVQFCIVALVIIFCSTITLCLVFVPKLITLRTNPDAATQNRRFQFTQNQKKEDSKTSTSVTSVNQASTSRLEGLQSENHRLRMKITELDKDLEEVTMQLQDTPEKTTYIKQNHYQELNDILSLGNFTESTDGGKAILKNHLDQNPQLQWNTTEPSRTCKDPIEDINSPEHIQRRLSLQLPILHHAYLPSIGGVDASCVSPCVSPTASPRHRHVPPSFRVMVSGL

[2] = tested on: GABAARs in hippocampal neurons; assay: slow inward current directly activated by CGP7930 in hippocampal neurons in high K+ external solution and its block by GABAAR antagonists; type: cell-based, rat; conditions: antagonist 100 μM, P < 0.001
Experimental: (§1) Spontaneous inhibitory postsynaptic currents (sIPSCs) were recorded from cultured hippocampal neurons at 12–17 days in vitro (DIV). […] For recording K^+ currents in GIRK cells and neurons, the bath solution was switched to a high K^+ solution containing 25 mM KCl and reduced NaCl (120 mM), to shift the equilibrium potential for K^+ from approximately −90 to −47 mV, thus reversing the direction of K^+ current flux to net inward. GABABR-activated K^+ currents in cultured neurons were recorded in the additional presence of 2 mM kynurenic acid and 20 μM picrotoxin.
CGP7930 modulation at neuronal GABABRs was also characterised using baclofen-activated GIRK currents in hippocampal cultures similarly bathed in a high external K^+ concentration.

[3] = tested on: GABAAR-mediated tonic inhibition in hippocampal neurons; assay: tonic inhibition: baseline holding current and RMS noise in cultured hippocampal neurons; type: cell-based, rat; conditions: Control to Bic (50 μM bicuculline)
Experimental: (§2) Briefly, single cells derived from dissected hippocampi were seeded onto glass coverslips coated with poly-D-lysine in a plating medium containing minimum essential media with 5% v/v heat-inactivated FCS, 5% v/v heat-inactivated horse serum, penicillin-G/streptomycin (100 U/100 μg/ml), 2 mM L-glutamine, and 20 mM glucose. Two hr after plating the media was changed to a Neurobasal-A based maintenance media supplemented with 1% v/v B-27, penicillin-G/streptomycin (100 U/100 μg/ml), 0.5% v/v Glutamax and 35 mM glucose.
as §1
(§3) Borosilicate glass electrodes (3–5 MΩ) were filled with a K^+-based internal solution for recording GIRK currents containing (mM): 120 KCl, 2 MgCl2, 11 EGTA, 30 KOH, 10 HEPES, 1 CaCl2, 1 GTP, 2 ATP, 14 creatine phosphate, pH 7.0. GABAAR currents and sIPSCs were recorded with a Cs-based internal solution containing (mM): 120 CsCl, 1 MgCl2, 11 EGTA, 30 KOH, 10 HEPES, 1 CaCl2, and 2 K2ATP; pH 7.2. […] Cells were held at −60 mV (sIPSCs) or −60/−70 mV (K^+ currents). Voltage clamp recordings were undertaken after optimising series resistance (Rs, <10 MΩ) and compensating for the whole-cell membrane capacitance. Membrane currents were filtered at 5 kHz (−3 dB, 6th pole Bessel, 36 dB/octave) and stored for analysis with Clampex 10.
For tonic inhibition, to determine the average holding currents, a 30 s continuous holding current recording was sampled every 1 s, discarding epochs that coincided with sIPSCs. Any effect of CGP7930 or bicuculline on the holding current was defined by subtracting the average holding currents in control and during drug application. The baseline root-mean-square current variance (RMS) was calculated before and during drug treatment. This was estimated from a continuous (20 s) current recording, sampled every 100 ms. The median current was calculated every 5 s and values more than twice the standard deviation from the median (usually due to IPSCs) were eliminated. All drugs were applied using a U-tube rapid drug application system, or more slowly via bath perfusion.
We assessed the effect of CGP7930 on tonic inhibition in hippocampal cultured neurons.

[4] = tested on: native GABAARs in hippocampal neurons; assay: muscimol-activated and CGP7930-activated GABAAR currents in hippocampal neurons, Cs+-based internal solution; type: cell-based, rat; conditions: read-out: muscimol EC50; hippocampal neurons, n = 9
Experimental: as §2, §1, §3
Concentration-response curves were generated by measuring the current (I) for each ligand concentration and normalising to the maximal current response (Imax).

C[C@H](NC[C@H](O)CP(=O)(O)Cc1ccccc1)c1ccc(Cl)c(Cl)c1 [CGP55845] showed an IC50 [1] of 10 ± 0.7 nM.
In the case of CN1CCc2cc3c(cc2[C@H]1[C@@H]1OC(=O)c2c1ccc1c2OCO1)OCO3 [bicuculline], the “effect on the slow inward current caused by > 3 μM CGP7930” value [2] is reported as “abolished” and the “Tonic currents (change in baseline holding current)” value [3] is reported as 38.02 ± 7.43 (6) pA.
NCc1cc(=O)[nH]o1 [muscimol] gave an EC50 [4] of 2700 ± 100 nM.
picrotoxin was tested, and the “effect on the slow inward current caused by > 3 μM CGP7930” value [2] was “abolished”.
